Results as given in patent US20160208249A1, “Compositions and Methods for Inducing Senescence in Cancer Cells” (INSERM (Institut National de la Sante et de la Recherche …, priority 2013, published 2016).

Key:
NF-kB = NF-kB luciferase reporter activity in melanoma cells; assay type: cell-based, human; details: A375, 4 days; PGJ2 1.5 μM, Bay 11-7082 2 μM, sulfasalazine 50 μM (FIG. 8A)
Protocol: Cells were transfected with NF-kB-luciferase reporter (NF-kB-Luc, Qiagen Germantown Md.) sensitive to overall NF-kB activation and with CMV promoter b-Galactosidase (pCMVβGal) for normalization purpose. Lipofectamine 2000 (Invitrogen, Carlsbad, Calif.) was used as transfection agent. 48 hrs post transfection, luciferase activity was tested using the luciferase assay system kit (Promega) and measured with the Clarity Luminescence Microplate Reader (Bio-Tek Instruments, Winooski, Vt.).
For gene reporter activity post gene silencing using RNA interference, cells were first transfected with SiRNAs according to experimental design using as transfecting agent Lipofectamine RNAimax as previously described. 24 hrs post transfection cells were again transfected using EZH2 promoter Renilla construct or NF-kB-luciferase reporter and pCMVβGal. 48 hrs after addition of the reporter plasmid, cells were harvested and luciferase or Renilla activity measured as above mentioned.

EZH2 [1] = assay: Western blot of EZH2 protein in melanoma cell lines; assay type: cell-based, human; details: metastatic melanoma cell lines carrying or not B-RAF V600E; PGJ2 2 μM 3 days, Bay 11-7082 2 μM 4 days
Protocol: Western Blot: Twenty to thirty micrograms of total proteins were run on 12% SDS-polyacrylamide gel electrophoresis. After transfer to polyvinylidene fluoride membrane (Millipore), immunoblotting was performed according to Laemli method. Glyceraldehyde-3-phosphate dehydrogenase (GAPDH), β-Actin or ERK2 were used as loading controls. Membranes were then incubated with an enhanced chemiluminescence system (Amersham) and immunoreactive bands were visualized using the luminescent image analyzer Fujifilm LAS-4000 (GE Healthcare).

EZH2 [2] = assay: qRT-PCR analysis of EZH2 mRNA in A375 cells; assay type: cell-based, human; details: for EZH2 mRNA: A375 cells treated for 3 days (FIG. 1B)
Protocol: Transfection experiments with Small interfering RNAs (siRNAs): Typically 30 000 to 50 000 cells were plated in 6-well culture plates and transfected 24 hours later with 25 nM or 50 nM siRNAs using Lipofectamine RNAimax (Invitrogen) according to manufacturer protocol. If not otherwise described cells were incubated with the si-RNA for 4 days prior harvesting for further experiments. […] As non specific control, a scramble sequence siRNA was used (cat. 16106, Ambion, Life Technologies, Grand Island, N.Y.).
(§1) Quantitative RT-PCR analysis: Total RNA was isolated from cells using RNAeasy minikit (Qiagen) according to manufacturer's procedure. Reverse transcription was performed using AMV reverse transcription system (Promega) while quantitative PCR was performed with Power Sybr green (Applied biosystem, Life Technologies, Grand Island, N.Y.) following manufacturer instructions (List of primers are available in supplementary information). PCR reaction was carried on a Step One plus Real-Time PCR system (Applied Biosystems). All analyses were done in triplicate and melting curve analysis was performed to control for product quality and specificity. Expression levels were calculated using the comparative method of relative quantification, with SB34 as normalizer. Data were analyzed for their statistical significance applying Student's t-test. Results are presented as mean±SEM relative to the control.
(§2) Transcription Factor Decoys (TFD) preparation and treatment. Double stranded TFDs were obtained by annealing at 95 C two complementary single stranded oligos (purchased from Invitrogen). TFDs were designed by copying the NF-kB2 sequences discovered on the EZH2 promoter (i.e. p52 decoy referred as and TFD4 as previously described). […] If not otherwise described cells were incubated with the TFDs for 4 days prior harvesting for qPCR evaluation of EZH2 levels or Senescence associated-β-Gal assay. As non specific control, a scramble sequence was used.

EZH2 [3] = assay: EZH2 level in melanoma cells cultured from patients' metastases; assay type: cell-based, human; details: melanoma cells from nine patients' metastases, PGJ2 2 μM 3 days / 1.5 μM 4 days
Protocol: Cell Culture: HEK293, Human A375 (CRL-1619), SK-Mel-28 (HTB-72) and MeWo (HTB-65) melanoma cell lines were purchased from American Tissue Culture Collection (Molsheim, France). Human primary melanoma cells were extracted from metastatic melanoma specimens that were obtained from the Department of Dermatology and the Biobank of the University hospital of Nice, France. All patients provided informed written consent. Biopsy was dissected and digested for 1-2 h with collagenase A (0.33 U/ml), dispase (0.85 U/ml) and Dnase I (144 U/ml) with rapid shaking at 37° C. Large debris were removed by filtration through a 70-μm cell strainer. Viable cells were obtained by Ficoll gradient centrifugation. […]
as §1, with “PCR reaction was carried on a Step One plus Real-Time PCR system (Applied Biosystems). All analyses were done in triplicate and melting curve analysis was performed to control for product quality and specificity.” left out, “Results are presented as mean±SEM relative to the control.” left out

melanoma = details: cited from earlier work
A375 melanoma cells = assay: Senescence associated-β-Gal assay; assay type: cell-based, human; details: 4 days
Protocol: Senescence associated-β-Gal assay: Cells were washed then fixed for 15 min at RT and stained using the Senescence β-Galactosidase staining kit following manufacturer instruction (Cell Signaling, Beverly, Mass.). A blue color reflects the β-Gal activity.
as §2

For Cc1ccc(S(=O)(=O)/C=C/C#N)cc1 [Bay 11-7082], the NF-kB activity (NF-kB) was “inhibition of NF-kB activity”, the “EZH2 at protein level” value (EZH2 [1]) was “decrease of EZH2 at protein level” and the “EZH2 mRNA” value (EZH2 [2]) was “marked decrease”.

For CCCCC/C=C/C=C1/C(=O)C=C[C@@H]1C/C=C\CCCC(=O)O [PGJ2, 15-deoxy-delta12,14-Prostaglandin J2], the NF-kB activity (NF-kB) was “inhibition of NF-kB activity”, the EZH2 protein level (EZH2 [3]) was “consistent decrease of EZH2” and the “EZH2 at protein level” value (EZH2 [1]) was “decrease of EZH2 at protein level”. For the same molecule, the “start of effect on EZH2 mRNA” value (EZH2 [2]; A375, time and dose dependent (FIG. 1C)) was at most 6 h and the “EZH2 mRNA” value (EZH2 [2]) was “marked decrease”.

With O=C(O)c1cc(/N=N/c2ccc(S(=O)(=O)Nc3ccccn3)cc2)ccc1O [sulfasalazine] the NF-kB activity (NF-kB) was “inhibition of NF-kB activity”, the “EZH2 at protein level” value (EZH2 [1]) was “decrease of EZH2 at protein level” and the “EZH2 mRNA” value (EZH2 [2]) was “marked decrease”.

In the case of “Ipilimumab: anti-CTLA-4 antibody used for the treatment of melanoma”, the “patients responding to treatment” value (melanoma; melanoma patients) is listed as 10% and the overall survival (melanoma; stage 4 melanoma patients) is listed as “increased the overall survival”.

With “TFD1: p52 decoy, double stranded DNA ODN: forward ATCGGGTCTCC (SEQ ID NO: 6), reverse GGAGAGCCCGAT (SEQ ID NO: 7) (DNA, backbone and methylation of C not given here)” the “senescence / SA-β-Gal activity” value (A375 melanoma cells) was “induce senescence”.

With “TFD4: p52 decoy, double stranded DNA ODN: forward ATCGGGGCTCACC (SEQ ID NO: 8), reverse GGTGAGCCCCGAT (SEQ ID NO: 9) (DNA, backbone and methylation of C not given here)” the “senescence / SA-β-Gal activity” value (A375 melanoma cells) was “induce senescence”.
